{"source": "paper PMC12838644", "about": "“Dihydrotanshinone as a Natural Product-Based CYP17A1 Lyase Inhibitor for Hyperandrogenic Disorders” (Biomolecules, 2026)", "key": {"CYP21A2": {"target": "T1, CYP21A2 (Homo sapiens, UniProt P08686)", "T1 construct": "expressed in transfected cells; host or cells: HEK293 / HEK-293T", "T1 sequence (P08686 1-495)": "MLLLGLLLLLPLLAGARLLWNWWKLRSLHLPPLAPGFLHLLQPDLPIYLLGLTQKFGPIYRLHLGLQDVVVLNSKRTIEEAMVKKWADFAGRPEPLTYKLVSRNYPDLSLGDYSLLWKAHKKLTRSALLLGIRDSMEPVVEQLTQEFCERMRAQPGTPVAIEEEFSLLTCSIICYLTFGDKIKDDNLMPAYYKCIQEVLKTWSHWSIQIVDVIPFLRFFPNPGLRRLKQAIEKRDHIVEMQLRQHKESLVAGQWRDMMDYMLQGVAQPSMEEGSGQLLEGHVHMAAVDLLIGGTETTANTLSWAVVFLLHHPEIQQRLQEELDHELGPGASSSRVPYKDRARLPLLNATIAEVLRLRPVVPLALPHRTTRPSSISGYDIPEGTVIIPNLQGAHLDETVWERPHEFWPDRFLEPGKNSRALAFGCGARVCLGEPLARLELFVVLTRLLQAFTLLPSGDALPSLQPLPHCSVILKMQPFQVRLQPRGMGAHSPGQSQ", "assay": "CYP21A2 activity assay in transiently transfected HEK-293T cells", "assay_type": "cell-based", "conditions": "transfected HEK-293T cells", "protocol": "Transient transfections were performed using the CYP21A2 WT vector as described previously. HEK293 cells were seeded in six-well plates (3 × 10^5 cells/well). After 24 h, the growth medium was replaced, and cells were transfected using Lipofectamine 2000 (Thermo Fisher Scientific, Bedford, MA, USA) with 12.5 µg of plasmid (plasmid concentration: 1068 µg/mL). Twenty-four hours after transfection, transfected cells were replated in 24-well plates (1.5 × 10^5 cells/well) to ensure homogeneity of the cell population across the wells. Six hours after transfection, 2 mL of fresh medium was replaced, and the cells were cultured for 48 h. Cell growth was examined. […] DMSO was added to the negative control, and 10 µM abiraterone was added to the positive control, and the cells were incubated for 4 h. Functional assays were initiated by adding 1 µM unlabeled progesterone (using 10,000 cpm of [^14C]-progesterone as a tracer). After incubation at 37 °C for 1 h, the culture medium and cells were harvested. Steroids were extracted from the culture medium with ethyl acetate and isooctane (1:1 volume ratio), dried, and dissolved in dichloromethane. Steroids were separated by thin-layer chromatography (TLC), placed on a phosphor screen, and visualized using a Typhoon PhosphorImager FLA-7000 (GE Healthcare Bio-Sciences AB, Uppsala, Sweden). Image intensity was measured and quantified using ImageQuant TL v8 (Cytiva, Marlborough, MA, USA). The CYP21A2 enzyme activity was expressed as relative steroid conversion. Steroids were quantified as a percentage of radioactivity incorporated into […] to the total radioactivity measured in the whole sample and compared between the WT and variants. Cells were collected with trypsin and washed with 1× PBS to quantify the amount of protein. Results were analyzed from three technical replicates. To ensure a similar amount of CYP21A2 in each reaction, a Western blot analysis was performed to normalize the enzyme activity with the relative CYP21A2 expression."}, "CYP17A1 17,20-lyase": {"target": "T2, CYP17A1 17,20-lyase (Homo sapiens, UniProt P05093)", "T2 sequence (P05093 1-508)": "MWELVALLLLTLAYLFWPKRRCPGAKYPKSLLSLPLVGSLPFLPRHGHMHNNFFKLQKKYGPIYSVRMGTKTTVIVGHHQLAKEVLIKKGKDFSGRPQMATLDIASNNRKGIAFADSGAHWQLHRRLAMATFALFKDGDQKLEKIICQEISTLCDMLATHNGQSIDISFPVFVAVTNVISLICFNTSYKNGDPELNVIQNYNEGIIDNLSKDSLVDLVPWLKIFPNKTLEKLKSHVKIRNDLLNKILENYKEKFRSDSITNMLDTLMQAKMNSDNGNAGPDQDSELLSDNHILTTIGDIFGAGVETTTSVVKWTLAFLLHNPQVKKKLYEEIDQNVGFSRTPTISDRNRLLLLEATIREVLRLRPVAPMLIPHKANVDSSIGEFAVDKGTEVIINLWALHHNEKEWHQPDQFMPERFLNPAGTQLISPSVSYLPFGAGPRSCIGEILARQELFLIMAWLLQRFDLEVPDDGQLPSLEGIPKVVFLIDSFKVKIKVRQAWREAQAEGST", "assay": "CYP17A1 17,20-lyase activity assay (DHEA from 17OH-pregnenolone, POR, CYP17A1 and cytochrome b5)", "assay_type": "biochemical", "protocol": "Assay of CYP17A1 17α-hydroxylase and 17,20-lyase activities were performed as described previously. The 17α-hydroxylase activity was measured by conversion of progesterone to 17OH-progesterone, while production of DHEA from 17OH-pregnenolone was used for monitoring the 17,20-lyase activity of CYP17A1. In vitro CYP17A1 assays were performed using a liposome system consisting of human p450 oxidoreductase (POR) and CYP17A1 at a ratio of 3:4 (POR: CYP17A1). […] The drugs were added to the final mixture and incubated for 1h before the catalytic reaction was initiated by the addition of NADPH to 1 mM final concentration. Radiolabeled [^14C]-progesterone (10,000 cpm in 1 µM) was used as a tracer in each reaction. Steroids were extracted and separated by thin-layer chromatography (TLC) on silica gel (SIL G/UV254) TLC plates (Macherey-Nagel, Oensingen, Switzerland) as previously described.\nIn vitro CYP17A1 17,20-lyase activity assays were performed using POR, CYP17A1 and cytochrome b5 as described previously. The final assay mixture consisted of proteins, 10 mM MgCl2, 6 mM KOAc, 0.05 mg/mL DLPC, 1 mM reduced glutathione in 50 mM HEPES-NaOH buffer (pH 7.4), and the reaction volume was 200 μL. The drugs were added to the final mixture and incubated for 1h before the catalytic reaction was initiated by the addition of NADPH to 1 mM final concentration. Radiolabeled [^3H]-17OH-pregnenolone (50,000 cpm in 1 µM) was added as a tracer and the enzyme activity was measured by using the scintillation counter in the water release assay."}, "CYP17A1 17α-hydroxylase": {"target": "T3, CYP17A1 17α-hydroxylase (Homo sapiens, UniProt P05093)", "T3 sequence (P05093 1-508)": "T2 sequence (P05093 1-508)", "assay": "CYP17A1 17α-hydroxylase activity assay (progesterone to 17OH-progesterone, reconstituted POR/CYP17A1)", "assay_type": "biochemical", "conditions": "10 µM (SM extract 10 µg/mL)", "protocol": "Assay of CYP17A1 17α-hydroxylase and 17,20-lyase activities were performed as described previously. The 17α-hydroxylase activity was measured by conversion of progesterone to 17OH-progesterone, while production of DHEA from 17OH-pregnenolone was used for monitoring the 17,20-lyase activity of CYP17A1. In vitro CYP17A1 assays were performed using a liposome system consisting of human p450 oxidoreductase (POR) and CYP17A1 at a ratio of 3:4 (POR: CYP17A1). The final assay mixture consisted of proteins (37.5 […] CYP17A1), 10 mM MgCl2, 6 mM potassium acetate (KOAc), 0.05 mg/mL DLPC,1 mM reduced Glutathione in 50 mM HEPES-NaOH buffer (pH 7.4), and the reaction volume was 200 μL. The drugs were added to the final mixture and incubated for 1h before the catalytic reaction was initiated by the addition of NADPH to 1 mM final concentration. Radiolabeled [^14C]-progesterone (10,000 cpm in 1 µM) was used as a tracer in each reaction. Steroids were extracted and separated by thin-layer chromatography (TLC) on silica gel (SIL G/UV254) TLC plates (Macherey-Nagel, Oensingen, Switzerland) as previously described."}}}
{"smiles": "C[C@]12CC[C@H](O)CC1=CC[C@@H]1[C@@H]2CC[C@]2(C)C(c3cccnc3)=CC[C@@H]12", "note": "[Abiraterone, abiraterone, reference compound]", "values": [{"measurement": "inhibition at 10 µM", "setting": "CYP21A2; 10 µM (SM extract 10 µg/mL), calculated as 100% − % residual activity, read-out: % Inhibition CYP21A2", "result": 29.8, "unit": "%"}, {"measurement": "Residual CYP21A2 activity", "setting": "CYP21A2; % of DMSO control, 10 µM", "result": 70, "unit": "%"}, {"measurement": "inhibition at 10 µM", "setting": "CYP17A1 17,20-lyase; 10 µM (SM extract 10 µg/mL), calculated as 100% − % residual activity, read-out: % Inhibition CYP17A1-Lyase", "result": 69.6, "unit": "%"}, {"measurement": "Residual 17,20-lyase activity", "setting": "CYP17A1 17,20-lyase; % of DMSO control, 10 µM (SM extract 10 µg/mL)", "result": 30, "unit": "%"}, {"measurement": "Lyase/CYP21A2 Selectivity Index", "setting": "CYP17A1 17,20-lyase; (% Inhibition Lyase)/(% Inhibition CYP21A2) at 10 µM (SM 10 µg/mL)", "result": 2.34}, {"measurement": "Lyase/OH Selectivity Index", "setting": "CYP17A1 17,20-lyase; (% Inhibition Lyase)/(% Inhibition OH) at 10 µM (SM 10 µg/mL)", "result": 0.73}, {"measurement": "inhibition at 10 µM", "setting": "CYP17A1 17α-hydroxylase; calculated as 100% − % residual activity, read-out: % Inhibition CYP17A1-OH", "result": 94.7, "unit": "%"}, {"measurement": "Residual 17α-hydroxylase activity", "setting": "CYP17A1 17α-hydroxylase; % of DMSO control", "result": 5.3, "unit": "%"}]}
